Measured values: US9815878B2, “Use of PEDF-derived polypeptides for preventing and/or ameliorating skin aging” (MacKay Memorial Hospital, priority 2012, dated 2017)
No end group written: not given here.

Tests used:
[1] = tested on: primary mouse dermal fibroblasts; test: Dermal fibroblast proliferation in vitro, BrdU labeling assay; assay type: cell-based, C57BL/6 mouse; details: 24 hours; for BrdU/Vimentin Labeling Index (%): 50 nM peptide in 1% FBS medium, BrdU 2 hours
Experimental: (§1) Full-thickness skin tissue was obtained from the dorsum of C57BL/6 mouse. The subcutaneous tissue was carefully dissected from the skin and washed three times in sterile phosphate-buffered saline (PBS). The tissue was then cut into small pieces (1-2 mm^3). After being digested with 0.1% dispase at 4° C. overnight, the epidermal layers were removed, and the remaining dermal parts were further digested with 0.1% collagenase I at 37° C. for another 4 hours. The digested cells were then collected by centrifugation (400 g for 5 minutes) and resuspended in high-glucose DMEM supplemented with 10% FBS, 2 mM L-glutamine, and 1% penicillin-streptomycin antibiotic mixture. Cells were seeded onto tissue-culture plates (Falcon Labware; NJ, USA) at 1×10^3 cells/cm^2 and maintained at 37° C. with 5% CO2. After 24 hours, the medium was discarded to remove residual non-adherent cells, and cell culture was replenished with a fresh medium. For passage, near-confluent cells were harvested with 0.25% trypsin/EDTA.
After fixing with 4% paraformaldehyde, cells were exposed to cold methanol for 2 minutes, and then treated with 1 N HCl at room temperature for 1 hour before performing immunofluorescence staining.
BrdU-labeled DNA was detected by polyclonal anti-BrdU antibody and rhodamine-conjugated donkey anti-rabbit IgG. Nuclei were counterstained with Hoechst 33258 (blue).
Primary mouse dermal fibroblasts were isolated and cultured as described in the “Materials and Methods” section. The dermal fibroblast at passage 2 were seeded at gelatin-coated slide in a 6-well plate at a density of 2×10^5 cells per well and cultured in growth medium (DMEM 10% FBS) for 24 hours before being replaced by a basal growth medium with 1% FBS only (control group) or with 1% FBS plus an additional 50 nM of PEDF-derived peptide (i.e., 29-mer, 24-mer, 20-mer, 18-mer, Mo 29-mer, or Mo 20-mer) for 24 hours. For BrdU labeling assay, BrdU (final concentration, 10 μM) was added to the culture for 2 hours. The level of BrdU- and vimentin-double positive cells was expressed as the percentage of BrdU- and vimentin-double positive cells per total vimentin-positive cells (the BrdU/Vimentin Labeling Index), and the results were summarized in Table 2.

MMP-1 = test: UVB-induced MMP-1 protein expression in WS-1 cells, western blotting; assay type: cell-based, human
Experimental: Human skin fibroblast WS-1 cell line was obtained from Food Industry Research and Development Institute (Hsin-Chu, Taiwan). The WS-1 cells were maintained in a 37° C., 5% CO2 humidified incubator as monolayers in culture flasks. They were grown in 10% FBS-DMEM supplemented with 2 mM L-glutamine, 0.1 mM non-essential amino acids, 1% penicillin/streptomycin. For passage, near-confluent cells were sub-cultured by 0.25% trypsin/EDTA.
Skin tissues were homogenized in ice-cold lysis buffer containing 20 mM HEPES (pH 7.4), 150 mM NaCl, 1% SDS, 1 mM ethylenediamine tetraacetic acid (EDTA), 5 mM phenylmethanesulfonyl fluoride (PMSF), and 1 mM dithiothreitol (DTT), 1% Triton X-100, with freshly added protease inhibitor cocktail (Roche, Indianapolis, Ind.). Homogenates were then centrifuged at 12,000 g for 30 minutes at 4° C., and supernatants were then collected and stored at −70° C. Protein contents in lysates were determined using the Bradford assay. Whole cell lysates were prepared using the above lysis buffer. Aliquots of the lysates were then resolved on a SDS-PAGE and then electrotransferred to polyvinylidene difluoride (PVDF) membranes (Millipore, Bedford, Mass., USA) and processed for immunoblot analysis.
Antibodies used in the immunoblot study included anti-type I collagen 1A1 antibody (1:1000 dilution), anti-MMP-1 antibody (1:500 dilution) and anti-β-actin antibody (1:10000 dilution). Proteins of interest were detected using the appropriate IgG-HRP secondary antibody and ECL reagent (Amersham, Arlington Heights, Ill., USA). X-ray films were scanned on a Model GS-700 Imaging Densitometer (Bio-Rad Laboratories, Hercules, Calif.) and analyzed using Labworks 4.0 software. For quantification, blots from at least three independent experiments were used.
WS-1 were seeded on a six-well plate at a density of 1×10^5 cells per well and grown in the 10% FBS-DMEM growth medium for 24 hours and then incubated with 1% FBS-DMEM supplemented with or without 100 nM PEDF peptide for further 24 hours. The cells were washed twice with phosphate buffered saline (PBS) and exposed to UVB radiation covered with PBS. The UVB treatment was conducted in a cell culture hood by using a UVB lamp (model XL-1000B, Spectrolinker™ Inc.) at a final dose of 15 mJ/cm^2 for about 100 seconds. Cell viability was assayed using trapan blue exclusion assay (>95%). After UVB irradiation, PBS was replaced with 1% FBS-DMEM with or without PEDF peptide for further 48 hours and then protein extracts were assayed by western blotting for the expression of MMP-1 protein. Cells that were not subjected to UVB irradiation were used as control (normal). The expression level of MMP-1 was normalized with the expression level in the Vehicle/UVB group (set to 100%), and quantitative results are summarized in Table 6.

MMP-13 = test: UVB-induced MMP-13 mRNA expression in primary mouse dermal fibroblasts, RT-PCR; assay type: cell-based
Experimental: as §1
The total RNA was extracted from cells using the TRIzol (Invitrogen) and treated with RNase-free DNase I (Qiagen, Santa Clarita, Calif.) to remove genomic DNA and then purified with an RNA purification kit (Dynabeads; Invitrogen). 1 μg of total RNA retrieved from primary dermal fibroblast was reverse-transcribed into cDNA by 200 units of expand Reverse-Transcriptase (Roche, Mannheim, Germany) in 20 μl of reaction buffer containing 0.25 μg of random primers and 0.8 mM dNTPs at 42° C. for 1 hour. 2 μl of the cDNA was used for the PCR reaction as templates. PCR was performed in a 30 μl volume containing 15 μl of EconoTaq® PLUS GREEN 2× Master Mix (Lucigen® Corp.), 1 μM of each primer and 2 μl of template DNA. cDNA was synthesized in an 18-22 cycle amplification reaction (denaturation, 20 s, 94° C.; annealing, 30 s, 57° C.; and polymerization, 40 s, 72° C.). The number of cycles for the primer set was chosen to be in the linear range of amplification. The sequences of specific PCR primers were mouse MMP-13 (accession number: NM_008607) sense, […] (SEQ ID NO: 12); antisense, […] (SEQ ID NO: 13); PCR product: 201 bp; and mouse glyceraldehyde 3-phosphate dehydrogenase (GAPDH; accession number: M32599) sense, […] (SEQ ID NO: 14); and anti-sense, […] (SEQ ID NO: 15); PCR product: 223 bp.). The PCR products were electrophoresed in a 2% agarose gel containing ethidium bromide and visualized by UV illumination. The intensities of the PCR products were quantified densitometrically using a FUJI LAS-3000 system and Multi Gauge Ver. 1.01 software (Fujifilm, Tokyo, Japan).
Primary mouse dermal fibroblasts in passage 2 of monolayer cultures were incubated with 1% FBS-DMEM supplemented with or without 100 nM PEDF peptide for 24 hours, and then subjected to UVB irradiation as described above. After UVB irradiation, PBS was replaced with 1% FBS-DMEM with or without PEDF peptide for further 24 hours, and then cellular total RNAs were extracted for subsequent RT-PCR analysis. The expression level of MMP-13 mRNA was normalized with the expression level in the Vehicle/UVB group (set to 100%), and quantitative results are summarized in Table 7.

[2] = Transdermal delivery of FITC-conjugated 29-mer ointment with or without microneedle patch, fluorescent microscopy of skin; assay type: in vivo, C57BL/6 mice; details: 24 hours later
Experimental: The Fluorescein (FITC)-conjugated 29-mer peptide was used to investigate the in vivo transdermal delivery of the present PEDF peptides.
First, the dorsal hair of 8-wk-old male C57BL/6 mice were removed using a melted wax/rosin mixture (1:1) under general anesthesia. On the next day, the ointment containing the FITC-conjugated 29-mer peptide (25 μM) was applied onto the dorsal skin of the mice, and then a microneedle patch (3M™ Microchannel Skin System; provided from 3M Singapore) was gently pressed against the dorsal skin so that the microneedles penetrated less than 100 microns into the skin (the FITC-29 mer/MN group). As to the control group (FITC-29 mer/CT), the mice received the ointment without subsequent microneedle treatment. Twenty-four hours later, the skin was harvested, fixed, cryosectioned and examined by fluorescent microscopy.
The H&E stained section in the left panel of FIG. 1 highlights the epidermis and dermis of the specimen. The fluorescence images in the middle and right panels of FIG. 1 illustrate the distribution of FITC-conjugated 29-mer across the skin.

SLGAEHRTESVIHRALYYDL [Mo 20-mer, synthetic peptide derived from mouse PEDF]
BrdU/Vimentin Labeling Index (%) [1]: 11.3 ± 1.6 %

SLGAEQRTESIIHRALYYDLISSP [24-mer, synthetic peptide corresponding to residues 93-116 of human PEDF]
BrdU/Vimentin Labeling Index (%) [1]: 10.1 ± 1.9 %
proliferation relative to control medium ([1]; 50 nM peptide): about 5 fold
MMP-1 Expression Level (%) (MMP-1; 100 nM peptide 24 h before and 48 h after UVB 15 mJ/cm^2, Vehicle/UVB set to 100%): 48 ± 7.2 %
MMP-1 protein level relative to vehicle/UVB group (MMP-1; pre-incubation with peptide, UVB): about half
MMP-13 Expression Level (%) (MMP-13; 100 nM peptide 24 h before and 24 h after UVB 15 mJ/cm^2, mRNA, Vehicle/UVB set to 100%): 16.3 ± 1.5 %
effect on UVB-induced upregulation of MMP-13 (MMP-13; cells pretreated with peptide, UVB): substantially reduced

SLGAEHRTESVIHRALYYDLITNPDIHST [Mo 29-mer, synthetic peptide derived from mouse PEDF]
BrdU/Vimentin Labeling Index (%) [1]: 11.1 ± 2.0 %

FITC-conjugated 29-mer: Fluorescein (FITC)-conjugated 29-mer peptide used to investigate in vivo transdermal delivery (SLGAEQRTESIIHRALYYDLISSPDIHGT; also: FITC conjugated, site not given here)
distribution of fluorescein signal across the skin (delivery to dermis) ([2]; ointment 25 μM on dorsal skin plus microneedle patch (FITC-29 mer/MN)): successfully delivered to the dermis
distribution of fluorescein signal across the skin (delivery to dermis) ([2]; ointment 25 μM on dorsal skin without microneedle treatment (FITC-29 mer/CT)): barely detectable in the dermis
